The record followed here is patent publication US9084785B2, “Composition for accelerating change in muscle type” (AMOREPACIFIC CORPORATION, priority 2010, dated 2015).

Assay [1] has as its system C57BL/6 mice. The assay can be described thus: Blood analysis (blood sugar, serum triglyceride and cholesterol). In kind it is in vivo, mouse. To be noted: 200 mg/kg oral once a day, 8 weeks. How it is done: 5-week-old male C57BL/6 mice were grouped with 10 mice per group. They were orally administered with Gynostemma pentaphyllum leaf extract, Artemisia princeps extract, astragali radix extract or EPA alone, a mixture of Artemisia princeps extract, Gynostemma pentaphyllum leaf extract and astragali radix extract or a mixture of EPA, Gynostemma pentaphyllum leaf extract and astragali radix extract (200 mg/kg) as test substances for 8 weeks, once a day. Then, blood analysis was performed to evaluate blood sugar level and serum triglyceride and cholesterol levels. The blood sugar level was measured using the Accu-Check Active kit (Roche Diagnostics, Seoul, Korea). The blood sample was centrifuged at 3000 rpm for 10 minutes to separate serum. Triglyceride and cholesterol levels in the separated serum were analyzed using the […] analyzer (Vital Scientific, […], The Netherlands).

For assay [2], the system named is C57BL/6 mice. The assay is described as follows: Change in muscle type (slow-twitch myosin staining of plantaris muscle). In kind it is in vivo, mouse. Conditions: 200 mg/kg oral once a day, 8 weeks. How it is done:
5-week-old male C57BL/6 mice were grouped with 10 mice per group to evaluate change in muscle type after administration of test substances. The experimental mice were orally administered with Gynostemma pentaphyllum leaf extract, Artemisia princeps extract, astragali radix extract or EPA alone, a mixture of Artemisia princeps extract, Gynostemma pentaphyllum leaf extract and astragali radix extract or a mixture of EPA, Gynostemma pentaphyllum leaf extract and astragali radix extract (200 mg/kg) as test substances for 8 weeks, once a day. The mice were fasted for 12 hours before autopsy. Plantaris muscle was taken from the mice of each test group and frozen in liquid nitrogen. The frozen tissue was sliced to 10-μm thickness using a cryotome, fixed in acetone for 10 minutes, and washed 3 times with PBS. After blocking for 2 hours with PBS containing 10% FBS, the tissue sections were treated with anti-slow-twitch myosin antibody (Abcam, Cambridge, UK) as primary antibody and with fluorescein isothiocyanate (FITC)-conjugated anti-mouse IgG antibody (Molecular Probes) as secondary antibody. After mounting with antifade solution, the sections were examined by confocal microscopy.

In the assay on C57BL/6 mice [1], `CC/C=C\C/C=C\C/C=C\C/C=C\C/C=C\CCCC(=O)O` [EPA, eicosapentaenoic acid] gave a Blood sugar of 181.2 ± 10.9 mg/dL. Besides, in the assay with C57BL/6 mice [1] (serum), the Cholesterol worked out at 164.9 ± 12.1 mg/dL and the Triglyceride was found to be 101.23 ± 11.3 mg/dL. Moreover, in the assay on C57BL/6 mice [2], the “Fast-twitch muscle (%)” value is listed as 70.6 ± 3.6% and the “Slow-twitch muscle (%)” value came to 29.4 ± 4.2%.
